# Measurements taken from patent US11026888B1, “Functional beverage compositions and methods of using and making same” (Nutrition Therapeutics, Inc., priority 2019, dated 2021).
# Experiments:
# [1] = dissolving of CBD within pomegranate seed oil; format: physicochemical; details: even at refrigeration temperatures
# Excerpt: (§1) For broad-based consumer success, it is desirable that a functional beverage product consistent in flavor, quality, and mouthfeel be manufacturable using an easily replicated process, and be food-safe. Immiscible components can result in material floating on the surface of the beverage, wherein the immiscible materials can shelter can promote the growth of contaminating organisms or provide localized regions survivable from pasteurizing temperatures. Additionally, such immiscible components can become a choking hazard to the unaware consumer. Non-polar compounds mix well with other non-polar compounds.
# [2] = vigorous mixing with water: miscibility / solubility; format: physicochemical; details: mixed vigorously
# Excerpt: Over time, the non-polar compounds will aggregate together and fall out of aqueous suspension. […] Beverages manufactured with only polar and non-polar substances would behave and result in a composition having an immiscible and undesirable tactile quality; pomegranate seed oil mixed with water is likely to result in a fatty or oily layer on top of the water, or with CBD, the water surface peppered with crystalline flakes. In most cases, the non-polar components are likely to adhere to the sides of the container.
# as §1
smiles,measurement,setting,value
"C=C(C)[C@@H]1CCC(C)=C[C@H]1c1c(O)cc(CCCCC)cc1O [CBD, cannabidiol]",dissolving within pomegranate seed oil,[1],successful dissolving
same,behaviour in water after vigorous mixing,[2],non-dissolving solid
